Test results published in publication PMC11206789, “Controlling the Solubility, Release Rate and Permeation of Riluzole with Cyclodextrins” (Pharmaceutics, 2024).

Key:
[1] = Dissolution of solid samples under dynamic conditions, side-by-side cell; assay type: physicochemical; conditions: for DE60, dissolution efficacy at 60 min / DPP, dissolution performance parameter / Q15, amount of RLZ dissolved at 15 min: buffer pH 6.8, 310 K; for Q15, amount of RLZ dissolved at 15 min: RLZ amount of 100 mg daily dose; for Dose dissolved during 180 min: buffer pH 6.8, 310.15 K
Description: The volume of the donor compartment was 7 mL. The powdered samples were placed in the donor cell. Then, 7 mL of buffer pH 6.8 was added to the donor compartment (start of the experiment). The solution was stirred with a stirring bar at a fixed speed of 500 rpm. The cell was maintained at 310.15 K during the experiment via water circulating. The samples of the solutions (V = 0.4 mL) from the donor cell were withdrawn every 5, 10, 15, 20, 25, 30, 40, 60, 90, 120, and 180 min followed by immediate replacement with fresh medium. The experiment lasted 3 h. The samples from the donor cell were filtered (syringe nylon filter, 13 mm diameter, pore size 0.45 μm). The concentrations of the samples were measured in a 96-well UV black plate (Costar) using a spectrophotometer (Spectramax 190; Molecular devices, Molecular Devices Corporation, San Jose, CA, USA). The kinetic curves of the dissolution/release of pure RLZ and RLZ from the solid samples were obtained.
The dissolution performance parameter (DPP), was calculated as follows:(16) DPP=AUCactual/AUCtheoretical×100% where AUCactual is the integral area under the curve C0Ct, and AUCtheoretical is the integral area under the curve CmaxCmax. Dissolution efficacy after 60 min (DE60)—a percentage of the area of the rectangle described by 100% dissolution at 60 min was determined by the calculation of the area under a dissolution curve up to 60 min by the following equation [49]:(17) DE60=∫060Qdt/Q100%×60×100% where Q is the percentage of the dissolved drug, t is the dissolution time point at 60 min.

[2] = Permeation under dynamic conditions (D/P setup), cellulose membrane; assay type: in vitro ADME; conditions: RC membrane, 310.15 K
Excerpt: The membrane of regenerated cellulose MWCO 12–14 kDa (Visking dialysis tubing MWCO 12–14 kDa, Medicell Membranes Ltd., London, UK) was applied as a barrier between the donor and receptor cells with an effective surface area of 1.77 cm^2. In addition, the PermeaPad barrier (PP) (PHABIOC, Germany, https://www.permeapad.com (accessed on 1 February 2023)) and polydimethylsiloxane-polycarbonate (55% polydimethylsiloxane and 45% polycarbonate, 40 μm in thickness) membrane “Carbosil” (PDS) (PENTAMED, Moscow, Russia, www.penta-med.ru) were used in a series of tests. The volume of the receptor compartment was the same as the donor one—7 mL. The donor and receptor cells were assembled with a membrane between them. The receptor compartment was filled with 7 mL of buffer pH 6.8. In the case of the samples with CD, the receptor solution contained the amount of CD equivalent to that in the solid sample. The solution in the receptor cell was stirred at 500 rpm. The constant temperature of 310.15 K was maintained. […]
Quantitative analysis of the permeation was evaluated using the flux (J) through the membrane which was determined as a slope of the permeation profiles representing the amount of permeated compound over the surface area (dQ/A) versus the time (t) in accordance with the equation:(20) J=dQ/A×dt

[3] = RLZ/CD stability constant from phase-solubility diagrams, van't Hoff thermodynamics; assay type: physicochemical; conditions: for Complexation (stability) constant KCS of RLZ/CD complex: 1:1 complex
Description: The standard (at 298.15 K) enthalpy change ( ΔHC0,S ) and the standard entropy change ( ΔSC0,S ) upon complex formation were calculated with the help of the integral form of the van’t Hoff’s equation:(4) lnKCS=−ΔHC0,S/RT+ΔSC0,S/R where T = 298.15 K, and R is the universal gas constant. A plot of lnKCS versus 1/T produces Slope=−ΔHC0,S/R and intercept equal to ΔSC0,S/R . The standard (at 298.15 K) change of the complexation Gibbs energy ( ΔGC0,S ) was calculated as follows:(5) ΔGC0,S=−RTlnKCS

[4] = 298.15 K, in water with undefined pH; cited from earlier work

Compound | DE60, dissolution efficacy at 60 min [1] [%] | DPP, dissolution performance parameter [1] [%] | Q15, amount of RLZ dissolved at 15 min [1] [%] | Increase of flux across the membrane, 30–180 min versus up to 30 min [2] [fold] | Stability constant of cyclodextrin complex with RLZ [4] [M⁻¹] | also measured
Nc1nc2ccc(OC(F)(F)F)cc2s1 [RLZ_raw] | 30.0 | 46.2 | 22.9 | 1.3 | – | Dose dissolved during 180 min ([1]; listed as raw RLZ): 62%
OC[C@H]1O[C@@H]2O[C@H]3[C@H](O)[C@@H](O)[C@@H](O[C@H]4[C@H](O)[C@@H](O)[C@@H](O[C@H]5[C@H](O)[C@@H](O)[C@@H](O[C@H]6[C@H](O)[C@@H](O)[C@@H](O[C@H]7[C@H](O)[C@@H](O)[C@@H](O[C@H]1[C@H](O)[C@H]2O)O[C@@H]7CO)O[C@@H]6CO)O[C@@H]5CO)O[C@@H]4CO)O[C@@H]3CO [α-CD, α-cyclodextrin] | – | – | – | – | – | Fold lower association constant of RLZ as compared to SBE-β-CD [3]: approximately 11 fold; Complexation (stability) constant KCS of RLZ/CD complex ([3]; pH 6.8, 310.15 K): 102.3 M⁻¹
COC[C@H]1O[C@@H]2O[C@H]3[C@H](O)[C@@H](OC)[C@@H](O[C@H]4[C@H](O)[C@@H](OC)[C@@H](O[C@H]5[C@H](O)[C@@H](OC)[C@@H](O[C@H]6[C@H](O)[C@@H](OC)[C@@H](O[C@H]7[C@H](O)[C@@H](OC)[C@@H](O[C@H]8[C@H](O)[C@@H](OC)[C@@H](O[C@H]1[C@H](O)[C@H]2OC)O[C@@H]8COC)O[C@@H]7COC)O[C@@H]6COC)O[C@@H]5COC)O[C@@H]4COC)O[C@@H]3COC [DM-β-CD, 2,6-di-O-methyl-β-cyclodextrin] | – | – | – | – | 1609.1 | –
sulfobutylether-β-cyclodextrin [SBE-β-CD] | – | – | – | – | – | Fold more stable RLZ complex as compared to α-CD ([3]; from Table 2): 11 fold; Complexation (stability) constant KCS of RLZ/CD complex ([3]; pH 6.8, 298.15 K): 1116.0 M⁻¹
Nc1nc2ccc(OC(F)(F)F)cc2s1 [RLZ_gr] | 39.9 | 57.0 | 28.3 | 1.3 | – | Dose dissolved during 180 min ([1]; listed as ground RLZ): 72%; Similarity factor f2 ([1]; reference raw RLZ, f2 > 50 shows similarity): 49.9
CC(O)COC[C@H]1O[C@@H]2O[C@H]3[C@H](O)[C@@H](O)[C@@H](O[C@H]4[C@H](O)[C@@H](O)[C@@H](O[C@H]5[C@H](O)[C@@H](O)[C@@H](O[C@H]6[C@H](O)[C@@H](O)[C@@H](O[C@H]7[C@H](O)[C@@H](O)[C@@H](O[C@H]8[C@H](O)[C@@H](O)[C@@H](O[C@H]1[C@H](O)[C@H]2O)O[C@@H]8COCC(C)O)O[C@@H]7COCC(C)O)O[C@@H]6COCC(C)O)O[C@@H]5COCC(C)O)O[C@@H]4COCC(C)O)O[C@@H]3COCC(C)O (stereo partly drawn) [HP-β-CD, hydroxypropyl-β-cyclodextrin] | – | – | – | – | 2327 | –
